What all share (format): biochemical
The target in one test is T1, CK1ε (Homo sapiens, UniProt P49674).
T1 construct: host or cells: Sf9 insect cells (baculovirus)
Nature of the test: ADP-Glo kinase inhibition assay, CK1ε. Conditions: 10 μM ATP, duplicate; for remaining activity at 1 µM: 1 μM compound, read-out: CK1 % residual activity at 1 μM; for remaining activity at 10 µM: 10 μM compound, read-out: CK1 % residual activity at 10 μM. How it is done: (§1) Kinase enzymatic activities were assayed in 384 well plates using the ADP-GloTM assay kit (Promega, Madison, WI, USA) according to the manufacturer’s guidance. Briefly, the reactions were carried out in a final volume of 6 μL for 30 min at 30 °C in an appropriate kinase buffer (10 mM MgCl2, 1 mM EGTA, 1 mM DTT, 25 mM Tris-HCl pH 7.5, 50 μg/mL heparin), with either protein or peptide as substrate in the presence of 10 μM ATP (40 mM Tris pH 7.5, 20 mM MgCl2 and 0.1 mg/mL of BSA). Afterward, 6 μL of ADP-GloTM Kinase Reagent was added to stop the kinase reaction. After an incubation time of 50 min at room temperature (RT), 12 μL of Kinase Detection Reagent was added for 1 h at RT. The transmitted signal was measured using the Envision (Perkin Elmer, Waltham, MA, USA) microplate luminometer and expressed in relative light unit (RLU). In order to determine the half maximal inhibitory concentration (IC50), the assays were performed in duplicate in the absence or presence of increasing doses of the tested compounds. GraphPad Prism6 software (GraphPad Software, San Diego, CA, USA) was used to fit dose–response curves and to determine the IC50 values. Kinase activities are expressed in the percentage of maximal activity, i.e., measured in the absence of an inhibitor. Peptide substrates were obtained from Proteogenix (Schiltigheim, France).
(§2) The following protein kinases were analyzed in this study: CDK5/p25 (human, recombinant, expressed in bacteria) was assayed with 0.8 μg/μL of histone H1 as substrate; CDK9/CyclinT (human, recombinant, expressed by baculovirus in Sf9 insect cells) were assayed with 0.27 μg/μL of the following peptide: […], as substrate; CK1ε (human, recombinant, expressed by baculovirus in Sf9 insect cells) was assayed with 0.022 μg/μL of the following peptide: […]pAYSITA (“Sp” stands for phosphorylated serine) as CK1-specific substrate; GSK3β (human, recombinant, expressed by baculovirus in Sf9 insect cells) were assayed with 0.010 μg/μL of GS-1 peptide, a GSK-3-selective substrate ([…]pEDEEE); Haspin-kd (human, kinase domain, amino acids 470–798, recombinant, expressed in bacteria) was assayed with 0.007 μg/μL of histone H3 (1–21) peptide ([…]) as substrate; Pim-1 (human proto-oncogene, recombinant, expressed in bacteria) was assayed with 0.8 μg/μL of histone H1 as substrate; MmCLK1 (from Mus musculus, recombinant, expressed in bacteria) was assayed with 0.027 μg/μL of the following peptide: […] as substrate; RnDYRK1A-kd (Rattus norvegicus, amino acids 1–499 including the kinase domain, recombinant, expressed in bacteria, DNA vector kindly provided by Dr. W. Becker, Aachen, Germany) was assayed with 0.033 μg/μL of the following peptide: […] as substrate.
(ADP-Glo first removes unused ATP, then detects ADP through luciferase.)

The next test has as its target T2, GSK3β (Homo sapiens, UniProt P49841).
T2 construct: host or cells: Sf9 insect cells (baculovirus)
Description: ADP-Glo kinase inhibition assay, GSK3β. Conditions: for remaining activity at 1 µM: read-out: GSK3 % residual activity at 1 μM; for remaining activity at 10 µM: read-out: GSK3 % residual activity at 10 μM. How it is done:
as §1, §2

In the next test the target is T3, MmCLK1 (Mus musculus, UniProt P22518).
T3 construct: host or cells: bacteria
Description: ADP-Glo kinase inhibition assay, CLK1. Conditions: for remaining activity at 1 µM: read-out: CLK1 % residual activity at 1 μM; for remaining activity at 10 µM: read-out: CLK1 % residual activity at 10 μM. How it is done:
as §1, §2

For a further test, the target named is T4, CDK5/p25 (Homo sapiens, UniProt Q00535).
T4 construct: host or cells: bacteria
Nature of the test: ADP-Glo kinase inhibition assay, CDK5/p25. Conditions: for remaining activity at 1 µM: read-out: CDK5 % residual activity at 1 μM; for remaining activity at 10 µM: read-out: CDK5 % residual activity at 10 μM. How it is done: as §1, §2

Another test has as its target T5, Pim-1 (Homo sapiens, UniProt P11309).
T5 construct: host or cells: bacteria
Nature of the test: ADP-Glo kinase inhibition assay, Pim-1. Conditions: 10 μM ATP, duplicate; for remaining activity at 1 µM: 1 μM compound, read-out: PIM1 % residual activity at 1 μM; for remaining activity at 10 µM: 10 μM compound, read-out: PIM1 % residual activity at 10 μM. How it is done:
as §1, §2

Test [1] has as its target T6, Haspin-kd (human, kinase domain, amino acids 470–798) (Homo sapiens, UniProt Q8TF76).
T6 construct: Haspin-kd (human, kinase domain, amino acids 470–798, recombinant, expressed in bacteria); host or cells: bacteria
T6 sequence (Q8TF76 470-798): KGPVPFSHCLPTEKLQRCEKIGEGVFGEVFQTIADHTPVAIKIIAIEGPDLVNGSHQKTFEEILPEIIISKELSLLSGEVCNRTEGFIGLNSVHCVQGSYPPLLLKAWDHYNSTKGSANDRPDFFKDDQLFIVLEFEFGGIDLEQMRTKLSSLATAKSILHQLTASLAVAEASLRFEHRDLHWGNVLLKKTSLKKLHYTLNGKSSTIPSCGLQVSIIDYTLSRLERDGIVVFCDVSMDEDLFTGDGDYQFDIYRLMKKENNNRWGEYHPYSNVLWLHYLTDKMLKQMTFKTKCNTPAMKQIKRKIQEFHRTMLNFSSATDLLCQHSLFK
Nature of the test: ADP-Glo kinase inhibition assay, Haspin. Particulars: for IC50: 10 μM ATP, duplicate; for remaining activity at 1 µM: read-out: Haspin % residual activity at 1 μM; for remaining activity at 10 µM: read-out: Haspin % residual activity at 10 μM. How it is done:
as §1

The next test deals with T7, RnDYRK1A-kd (Rattus norvegicus, UniProt Q63470).
T7 construct: RnDYRK1A-kd (Rattus norvegicus, amino acids 1–499 including the kinase domain, recombinant, expressed in bacteria); made in house; host or cells: bacteria
Nature of the test: ADP-Glo kinase inhibition assay, DYRK1A. Conditions: for remaining activity at 1 µM: read-out: DYRK1A % residual activity at 1 μM; for remaining activity at 10 µM: read-out: DYRK1A % residual activity at 10 μM. How it is done: as §1, §2

The next test addresses T8, CDK9/CyclinT (Homo sapiens, UniProt P50750).
T8 construct: host or cells: Sf9 insect cells (baculovirus)
Nature of the test: ADP-Glo kinase inhibition assay, CDK9/CyclinT. Conditions: for remaining activity at 1 µM: read-out: CDK9 % residual activity at 1 μM; for remaining activity at 10 µM: read-out: CDK9 % residual activity at 10 μM; for IC50: 10 μM ATP, duplicate. How it is done: as §1, §2

Setting [2] is: 10 μM ATP, duplicate, read-out: CLK1 IC50.
[3] abbreviates: 10 μM ATP, duplicate, read-out: DYRK1A IC50.

Each structure is given as a SMILES string. Where two headings read alike, the source gives them in different places.

T4 sequence (Q00535 whole entry): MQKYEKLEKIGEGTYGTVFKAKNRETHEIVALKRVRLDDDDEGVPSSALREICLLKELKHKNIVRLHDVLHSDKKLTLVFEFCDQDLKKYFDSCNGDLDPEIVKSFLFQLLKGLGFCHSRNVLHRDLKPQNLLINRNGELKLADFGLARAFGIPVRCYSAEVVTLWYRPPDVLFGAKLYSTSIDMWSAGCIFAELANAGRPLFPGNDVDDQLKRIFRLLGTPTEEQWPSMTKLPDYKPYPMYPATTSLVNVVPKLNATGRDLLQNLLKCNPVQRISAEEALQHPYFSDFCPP
T4 sequence (Q15078 99-307, further chain): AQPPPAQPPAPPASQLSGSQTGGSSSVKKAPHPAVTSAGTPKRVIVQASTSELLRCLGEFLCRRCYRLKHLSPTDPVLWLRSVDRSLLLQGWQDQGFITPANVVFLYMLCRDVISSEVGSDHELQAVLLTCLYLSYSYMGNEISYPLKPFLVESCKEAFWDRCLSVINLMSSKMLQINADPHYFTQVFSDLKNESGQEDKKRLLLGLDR
T8 sequence (O60563 whole entry): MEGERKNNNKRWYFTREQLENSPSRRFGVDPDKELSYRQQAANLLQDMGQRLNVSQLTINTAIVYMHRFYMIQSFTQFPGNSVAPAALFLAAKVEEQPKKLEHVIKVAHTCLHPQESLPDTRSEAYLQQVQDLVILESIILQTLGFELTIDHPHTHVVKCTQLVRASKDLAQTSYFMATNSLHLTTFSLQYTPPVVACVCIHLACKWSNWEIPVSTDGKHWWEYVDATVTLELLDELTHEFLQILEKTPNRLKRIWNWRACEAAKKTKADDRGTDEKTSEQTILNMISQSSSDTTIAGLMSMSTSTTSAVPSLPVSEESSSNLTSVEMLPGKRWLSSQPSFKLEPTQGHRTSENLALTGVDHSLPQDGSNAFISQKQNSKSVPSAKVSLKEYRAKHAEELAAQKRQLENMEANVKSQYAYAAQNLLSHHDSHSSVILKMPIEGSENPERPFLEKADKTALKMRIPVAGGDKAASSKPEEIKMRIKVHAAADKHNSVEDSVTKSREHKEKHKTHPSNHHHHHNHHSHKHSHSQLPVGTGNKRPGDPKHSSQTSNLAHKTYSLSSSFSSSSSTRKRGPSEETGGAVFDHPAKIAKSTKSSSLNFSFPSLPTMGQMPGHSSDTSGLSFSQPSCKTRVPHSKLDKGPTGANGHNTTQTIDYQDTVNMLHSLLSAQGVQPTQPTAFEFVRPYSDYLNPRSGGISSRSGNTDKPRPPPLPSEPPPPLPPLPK
T8 sequence (P50750 whole entry): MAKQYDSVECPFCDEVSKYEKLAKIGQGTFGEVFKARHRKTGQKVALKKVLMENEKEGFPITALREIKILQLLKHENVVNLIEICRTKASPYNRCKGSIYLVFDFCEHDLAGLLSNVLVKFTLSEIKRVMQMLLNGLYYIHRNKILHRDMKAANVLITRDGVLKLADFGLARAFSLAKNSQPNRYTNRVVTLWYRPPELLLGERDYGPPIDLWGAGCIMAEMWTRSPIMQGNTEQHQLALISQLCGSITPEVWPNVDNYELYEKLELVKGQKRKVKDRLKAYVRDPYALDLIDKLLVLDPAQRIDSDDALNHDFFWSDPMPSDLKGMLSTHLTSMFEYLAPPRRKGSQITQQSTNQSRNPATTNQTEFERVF
T1 sequence (P49674 whole entry): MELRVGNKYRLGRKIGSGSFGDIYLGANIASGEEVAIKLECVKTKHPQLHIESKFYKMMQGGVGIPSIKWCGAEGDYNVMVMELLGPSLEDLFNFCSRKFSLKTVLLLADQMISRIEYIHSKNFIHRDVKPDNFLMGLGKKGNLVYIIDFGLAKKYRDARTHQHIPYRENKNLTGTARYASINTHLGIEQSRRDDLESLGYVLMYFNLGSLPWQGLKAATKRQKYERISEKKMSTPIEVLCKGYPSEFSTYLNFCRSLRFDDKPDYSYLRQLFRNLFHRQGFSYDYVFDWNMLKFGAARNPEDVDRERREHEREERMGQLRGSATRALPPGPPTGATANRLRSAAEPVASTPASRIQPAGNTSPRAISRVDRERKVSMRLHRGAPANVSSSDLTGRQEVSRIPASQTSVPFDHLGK
T5 sequence (P11309 whole entry): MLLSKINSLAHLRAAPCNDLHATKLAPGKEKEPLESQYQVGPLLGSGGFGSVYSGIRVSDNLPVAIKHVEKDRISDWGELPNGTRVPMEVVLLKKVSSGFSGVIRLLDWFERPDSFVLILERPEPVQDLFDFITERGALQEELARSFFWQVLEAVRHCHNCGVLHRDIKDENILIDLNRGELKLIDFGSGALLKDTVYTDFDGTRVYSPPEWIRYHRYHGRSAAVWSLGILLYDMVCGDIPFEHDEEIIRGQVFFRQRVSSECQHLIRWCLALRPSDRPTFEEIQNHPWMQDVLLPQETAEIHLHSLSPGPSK
T2 sequence (P49841 whole entry): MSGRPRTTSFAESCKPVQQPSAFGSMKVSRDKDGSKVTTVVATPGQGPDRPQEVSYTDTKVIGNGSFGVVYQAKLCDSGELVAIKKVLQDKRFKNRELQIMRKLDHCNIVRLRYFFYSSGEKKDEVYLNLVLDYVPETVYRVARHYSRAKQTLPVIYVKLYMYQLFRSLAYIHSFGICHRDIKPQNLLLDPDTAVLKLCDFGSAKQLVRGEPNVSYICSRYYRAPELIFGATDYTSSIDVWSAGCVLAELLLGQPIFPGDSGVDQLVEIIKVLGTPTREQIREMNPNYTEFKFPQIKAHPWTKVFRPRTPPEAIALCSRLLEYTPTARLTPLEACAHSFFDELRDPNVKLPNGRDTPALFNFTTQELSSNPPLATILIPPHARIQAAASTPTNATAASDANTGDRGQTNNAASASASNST
T3 sequence (P22518 whole entry): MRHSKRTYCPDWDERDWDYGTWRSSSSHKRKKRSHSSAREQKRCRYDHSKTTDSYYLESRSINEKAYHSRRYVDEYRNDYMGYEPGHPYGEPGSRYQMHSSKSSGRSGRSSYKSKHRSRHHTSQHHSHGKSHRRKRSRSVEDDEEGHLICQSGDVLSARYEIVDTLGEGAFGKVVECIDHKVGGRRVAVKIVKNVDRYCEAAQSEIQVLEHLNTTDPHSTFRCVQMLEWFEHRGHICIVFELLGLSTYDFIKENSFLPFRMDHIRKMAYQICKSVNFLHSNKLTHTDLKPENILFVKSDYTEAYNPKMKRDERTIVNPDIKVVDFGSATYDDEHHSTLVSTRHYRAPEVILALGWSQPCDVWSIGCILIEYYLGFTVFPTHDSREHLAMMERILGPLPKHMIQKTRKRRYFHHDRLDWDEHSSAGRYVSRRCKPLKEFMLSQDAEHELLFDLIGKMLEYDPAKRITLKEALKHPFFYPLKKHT

Regarding `O=[N+]([O-])c1c2ccncc2cc2cn[nH]c12` [1a’], the remaining activity at 1 µM was found to be 100% on CK1ε; 99% at GSK3β; 90% at MmCLK1; 91% on CDK5/p25; 90% on Pim-1; 32% in test [1]. The remaining activity at 1 µM on RnDYRK1A-kd worked out at 68%; on CDK9/CyclinT, 86%. In addition, the remaining activity at 10 µM on CK1ε was 64%; on GSK3β, 50%; on MmCLK1, 30%; at CDK5/p25, 62%; on Pim-1 it was 85%; in test [1], 23%. Moreover, the remaining activity at 10 µM turned out to be 25% on RnDYRK1A-kd and 48% at CDK9/CyclinT. Besides, the concentration for half-maximal inhibition (IC50) was above 1000 nM on MmCLK1 (assumed on the basis of % of inhibition at 1 μM (less than 50%), read-out: CLK1 IC50 (assumed)); 154 nM in test [1]; above 1000 nM at RnDYRK1A-kd (assumed on the basis of % of inhibition at 1 μM (less than 50%), read-out: DYRK1A IC50 (assumed)).
`Cn1ncc2cc3cnccc3c([N+](=O)[O-])c21` [Compound 1b, 1-Methyl-9-nitro-1H-pyrazolo[3,4-g]isoquinoline]: the remaining activity at 1 µM is 88% at CK1ε; 73% at GSK3β; 42% on MmCLK1; 95% at CDK5/p25; 100% on Pim-1; 26% in test [1]. Also, the remaining activity at 1 µM at RnDYRK1A-kd came out at 41%; on CDK9/CyclinT it was 57%. In addition, the remaining activity at 10 µM worked out at 53% on CK1ε; 33% on GSK3β; 10% at MmCLK1; 43% on CDK5/p25; 54% on Pim-1; 9% in test [1]. Also, the values for the remaining activity at 10 µM on RnDYRK1A-kd and on CDK9/CyclinT were 11% and 35%, respectively. For the same molecule, the half-inhibitory concentration (IC50) on MmCLK1 (setting [2]) stood at 71 nM; in test [1], 57 nM; at RnDYRK1A-kd (setting [3]), 681 nM.
On to `CCn1ncc2cc3cnccc3c([N+](=O)[O-])c21` [Compound 1c, 1-Ethyl-9-nitro-1H-pyrazolo[3,4-g]isoquinoline], for which the remaining activity at 1 µM was 90% on CK1ε; 53% on GSK3β; 25% at MmCLK1; 94% at CDK5/p25; 100% at Pim-1; 38% in test [1]. The remaining activity at 1 µM came to 44% on RnDYRK1A-kd and 46% on CDK9/CyclinT. Besides, the remaining activity at 10 µM was determined as 58% at CK1ε; 19% at GSK3β; 6% at MmCLK1; 79% at CDK5/p25; 70% on Pim-1; 15% in test [1]. Further, the remaining activity at 10 µM at RnDYRK1A-kd was 18%; at CDK9/CyclinT, 23%. Also, the IC50 is 166 nM at MmCLK1 (setting [2]), 66 nM in test [1], 1110 nM at RnDYRK1A-kd (setting [3]) and 428 nM on CDK9/CyclinT.
As for `CCn1ncc2cc3cnccc3c(N)c21` [Compound 2c, 1-Ethyl-1H-pyrazolo[3,4-g]isoquinolin-9-amine], the remaining activity at 1 µM on CK1ε was 84%; on GSK3β, 82%; at MmCLK1, 34%; on CDK5/p25, 65%; at Pim-1 it was 91%; in test [1], 17%. Moreover, the remaining activity at 1 µM amounted to 23% on RnDYRK1A-kd and 80% on CDK9/CyclinT. In addition, the remaining activity at 10 µM at CK1ε came out at 48%; on GSK3β, 40%; on MmCLK1, 8%; at CDK5/p25 it was 28%; at Pim-1 it was 60%; in test [1], 3%. For the same molecule, the remaining activity at 10 µM was 6% at RnDYRK1A-kd and 50% on CDK9/CyclinT. Besides, the IC50 on MmCLK1 (setting [2]) came to 564 nM; in test [1], 62 nM; at RnDYRK1A-kd (setting [3]), 250 nM. Moreover, in test [1] (Haspin vs. DYRK1A, which was more inhibited than CLK1), the “Selectivity Index (SI) Haspin vs. DYRK1A” value is listed as 4.0.
On to `CCn1ncc2c(C)c3cnccc3c([N+](=O)[O-])c21` [Compound 3a, 1-Ethyl-4-methyl-9-nitro-1H-pyrazolo[3,4-g]isoquinoline], for which the remaining activity at 1 µM on CK1ε worked out at 89%; at GSK3β, 39%; on MmCLK1 it was 13%; at CDK5/p25, 64%; at Pim-1, 100%; in test [1] it was 20%. Moreover, the remaining activity at 1 µM stood at 73% at RnDYRK1A-kd and 43% at CDK9/CyclinT. The remaining activity at 10 µM worked out at 45% at CK1ε; 9% on GSK3β; 0% on MmCLK1; 35% at CDK5/p25; 97% on Pim-1; 8% in test [1]. Also, the remaining activity at 10 µM at RnDYRK1A-kd turned out to be 13%; at CDK9/CyclinT, 14%. Besides, the half-maximal inhibitory concentration (IC50) at GSK3β (10 μM ATP, duplicate, read-out: GSK3 IC50) was 1080 nM; on MmCLK1 (setting [2]), 101 nM; in test [1] it was 167 nM; against CDK9/CyclinT it was 789 nM.

By IC50 is commonly meant the concentration that gives 50% inhibition.
